Among the test systems are MCF7; SK-MEL-5; HT-29; HL-60; CCRF-CEM; Malme-3M; A549; LOX IMVI; NCI-H460; NCI/ADR-RES; HCC 2998; SNB-19; OVCAR-5; MOLT-4; UO-31; SK-MEL-28; NCI-H226; TK-10; MDA-MB-435; MDA-MB-231.
Assay in all cases: DTP human tumour cell line panel, 48 h

The source of these data is ChEMBL document CHEMBL1201862, “PubChem BioAssay data set” (2004).

Each structure is given as a SMILES string.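 Protocol summary: plate cells (96-well), add compound at 5 concentrations, incubate 48 h, interpolate endpoints linearly. Abbreviation: GI50, concentration required for 50% inhibition of growth.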 Activity calls are given as the source filed them. Rule as the data show it: active = GI50 up to about 1.1 µM and inactive = higher.

What is called GI50 is the concentration giving 50% growth inhibition. With `O=NN(CCF)C(=O)NC1CCSCC1`, the GI50 with MCF7, in the test with SK-MEL-5, in the test on HT-29, in the test with HL-60, in the test with CCRF-CEM and in the test on Malme-3M was > 100 µM (inactive) throughout. The GI50 with A549, in the test with LOX IMVI, in the test with NCI-H460, in the test on NCI/ADR-RES, in the test on HCC 2998 and in the test on SNB-19 was > 100 µM (inactive) throughout. Moreover, the GI50 in the test on OVCAR-5, with MOLT-4, with UO-31 and in the test on SK-MEL-28 was > 100 µM (inactive) in each case.

Consider `CCCCSCC(NC(=O)/C=C/c1c(C)[nH]c(=O)[nH]c1=O)C(=O)OC` (centres undefined), for which the GI50 in the test on MCF7 is 15.6 µM (inactive); with SK-MEL-5, 64.9 µM (inactive); in the test with HT-29 it was 102 µM (inactive); in the test with HL-60, 76.6 µM (inactive); in the test with CCRF-CEM, 20 µM (inactive); in the test on Malme-3M, 15.7 µM (inactive). The GI50 in the test on A549 is 124 µM (inactive); in the test on LOX IMVI, 78.3 µM (inactive); in the test with NCI-H226 it was 43.9 µM (inactive); in the test with NCI-H460, 57.5 µM (inactive); with NCI/ADR-RES, 358 µM (inactive); in the test with HCC 2998 it was 29 µM (inactive). The GI50 was 29 µM (inactive) in the test on SNB-19; 77.1 µM (inactive) in the test with OVCAR-5; 50.1 µM (inactive) with MOLT-4; 49.4 µM (inactive) in the test on UO-31; 75 µM (inactive) in the test with SK-MEL-28.

For the compound `COC(=O)c1ccc(S)c(S(=O)(=O)Nc2nc(N)n[nH]2)c1`, the GI50 with TK-10, with SK-MEL-5, in the test with HT-29, in the test with HL-60, with CCRF-CEM and with Malme-3M was > 100 µM (inactive) in each case. Besides, the GI50 in the test with A549, in the test with LOX IMVI, in the test with MDA-MB-435, in the test on NCI-H460, with NCI/ADR-RES and in the test on SNB-19 was > 100 µM (inactive) in each case. The GI50 in the test with OVCAR-5, in the test with MOLT-4, with UO-31, in the test on SK-MEL-28 and in the test with MDA-MB-231 was > 100 µM (inactive) in each case.

Turning to `CCOC(=O)CC(c1ccccc1)C(C)(C(=O)OCC)C(=O)OCC` (centres undefined), the GI50 in the test with TK-10, in the test on MCF7, in the test on SK-MEL-5, in the test on HT-29, in the test on HL-60 and in the test with CCRF-CEM was > 100 µM (inactive) throughout. In addition, the GI50 in the test on Malme-3M, with A549, in the test on LOX IMVI, with NCI-H226, in the test with NCI-H460 and with NCI/ADR-RES was > 100 µM (inactive) each time. The GI50 in the test on HCC 2998 was > 100 µM (inactive); in the test on SNB-19 it was > 100 µM (inactive); with OVCAR-5, > 100 µM (inactive); with MOLT-4, 76.9 µM (inactive); in the test on UO-31, 33.3 µM (inactive); in the test on SK-MEL-28 it was > 100 µM (inactive). Also, the GI50 in the test on MDA-MB-231 is > 100 µM (inactive).

Turning to `Cc1ccc(S(=O)(=O)N/N=C2/C3CCC(C3)C2c2ccccc2)cc1` (centres undefined), the GI50 in the test with TK-10, in the test with MCF7, in the test with SK-MEL-5, with HT-29, in the test with HL-60 and in the test on CCRF-CEM was > 100 µM (inactive) in each case. Besides, the GI50 with Malme-3M, with A549, in the test with LOX IMVI, with MDA-MB-435, in the test with NCI-H226 and in the test on NCI-H460 was > 100 µM (inactive) throughout. Besides, the GI50 in the test with NCI/ADR-RES, with SNB-19, in the test on OVCAR-5, in the test with MOLT-4, in the test with UO-31 and with SK-MEL-28 was > 100 µM (inactive) throughout.

Consider `CC1CN=C(N(C(=O)Nc2ccc(Cl)c(Cl)c2)c2ccccc2)S1` (centres undefined), for which the GI50 is 38.9 µM (inactive) in the test on TK-10; 28.2 µM (inactive) in the test with MCF7; 20.7 µM (inactive) with SK-MEL-5; 34.8 µM (inactive) in the test on HT-29; > 10 µM (inactive) in the test with HL-60; 31.9 µM (inactive) in the test on CCRF-CEM. Further, the GI50 in the test with Malme-3M is 76.7 µM (inactive); in the test on A549, 53.7 µM (inactive); in the test on LOX IMVI, 28.7 µM (inactive); in the test on NCI-H460, 43.4 µM (inactive); in the test with NCI/ADR-RES, 34.8 µM (inactive); in the test with HCC 2998, 33.6 µM (inactive). The GI50 was > 100 µM (inactive) with SNB-19; > 100 µM (inactive) with OVCAR-5; > 100 µM (inactive) in the test on MOLT-4; > 100 µM (inactive) in the test on UO-31; 38.5 µM (inactive) with SK-MEL-28; > 100 µM (inactive) in the test on MDA-MB-231.

Consider `[N-]=[N+]=NCc1cccc(Nc2cc(=O)[nH]c(=O)[nH]2)c1`, for which the GI50 in the test with TK-10, in the test with MCF7, in the test with SK-MEL-5, in the test on HT-29, in the test on HL-60 and with CCRF-CEM was > 100 µM (inactive) each time. Further, the GI50 in the test with Malme-3M, in the test with A549, with LOX IMVI, with MDA-MB-435, with NCI-H226 and in the test on NCI/ADR-RES was > 100 µM (inactive) in each case. The GI50 with HCC 2998, in the test with SNB-19, in the test with OVCAR-5, in the test with MOLT-4, in the test on UO-31 and with SK-MEL-28 was > 100 µM (inactive) in each case.

Turning to `CC1(C)CC23C4COC(=O)C2CCC1C3CC4=O` (centres undefined), the GI50 in the test with MCF7 was 19.5 µM (inactive); with SK-MEL-5, 9.86 µM (inactive); with HT-29, 22.9 µM (inactive); in the test with HL-60, 3.06 µM (inactive); in the test on CCRF-CEM it was 2.37 µM (inactive); with Malme-3M, 7.21 µM (inactive). Also, the GI50 in the test with A549 is 19.1 µM (inactive); with LOX IMVI it was 8.39 µM (inactive); in the test with NCI-H226 it was 6.59 µM (inactive); with NCI-H460, 11.1 µM (inactive); in the test on NCI/ADR-RES it was 7.21 µM (inactive); with HCC 2998, 13.9 µM (inactive). In addition, the GI50 in the test on SNB-19 was 28.3 µM (inactive); with OVCAR-5 it was 32.6 µM (inactive); in the test with MOLT-4 it was 5.87 µM (inactive); in the test on UO-31, 28.6 µM (inactive); in the test on SK-MEL-28, 6.12 µM (inactive).

As for `Cn1nc(C(=O)N2CC(CCl)c3c2cc(N)c2ccccc32)cc1NC(=O)Nc1cc(C(=O)N2CC(CCl)c3c2cc(N)c2ccccc32)nn1C` (centres undefined), the GI50 in the test on TK-10 was > 100 µM (inactive); in the test with SK-MEL-5, 0.192 µM (active); in the test on HT-29, 0.0215 µM (active); in the test with CCRF-CEM, < 0.01 µM (active); with Malme-3M, 0.21 µM (active); with A549 it was 0.499 µM (active). Further, the concentration for 50% growth inhibition (GI50) is < 0.01 µM (active) with LOX IMVI; 0.219 µM (active) in the test with MDA-MB-435; < 0.01 µM (active) with NCI-H460; > 100 µM (inactive) in the test on NCI/ADR-RES; 1.21 µM (inactive) with HCC 2998; 0.0621 µM (active) in the test on SNB-19. For the same compound, the GI50 is 0.301 µM (active) in the test with OVCAR-5; < 0.01 µM (active) in the test on MOLT-4; 14.1 µM (inactive) in the test with UO-31; 0.108 µM (active) with SK-MEL-28; 0.243 µM (active) with MDA-MB-231.

In the case of `Cn1cnc([N+](=O)[O-])c1Sc1nc2cc([N+](=O)[O-])ccc2[nH]1`, the GI50 in the test with TK-10 was 19.5 µM (inactive); with SK-MEL-5, 15.5 µM (inactive); with HT-29, 36.4 µM (inactive); with HL-60, 14 µM (inactive); in the test on CCRF-CEM, 15.4 µM (inactive); with Malme-3M it was > 10 µM (inactive). The GI50 in the test on A549 is 29.3 µM (inactive); in the test on LOX IMVI it was 24.7 µM (inactive); with NCI-H226 it was 40.2 µM (inactive); with NCI-H460 it was 36.1 µM (inactive); in the test with HCC 2998, 15 µM (inactive); with SNB-19, 42.3 µM (inactive). Further, the GI50 with OVCAR-5 is 48.4 µM (inactive); with MOLT-4, 14.8 µM (inactive); with UO-31 it was 19.1 µM (inactive); with SK-MEL-28, 15.3 µM (inactive).

Take `[O-][n+]1ccccc1S` [PYRITHIONE ZINC]: the GI50 in the test with TK-10 is 10.1 µM (inactive); in the test with SK-MEL-5, 1.22 µM (inactive); in the test on HT-29, 0.176 µM (active); in the test with HL-60, 0.232 µM (active); in the test with CCRF-CEM, 0.0331 µM (active); with Malme-3M it was 2.45 µM (inactive). Moreover, the GI50 with A549 was 1.55 µM (inactive); with LOX IMVI, 1.4 µM (inactive); in the test on NCI-H226, 10.2 µM (inactive); in the test with NCI-H460, 1.63 µM (inactive); in the test with HCC 2998 it was 0.452 µM (active); in the test with SNB-19, 5.2 µM (inactive). Besides, the GI50 in the test with OVCAR-5 is 5.55 µM (inactive); in the test with MOLT-4, 0.0973 µM (active); with UO-31 it was 2.43 µM (inactive); in the test on SK-MEL-28, 1.97 µM (inactive).
